What was measured:
ZR-75-1 Tam1 [1] = test: relative IC50 (midpoint of fitted logistic curve, plateau may be below 50% inhibition; CellTiter-Glo viability); higher = less potent; details: 4-OH-tamoxifen in medium 1 µM; 72 h
Protocol: (§1)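 FIMM FO2B library drugs were plated at 5 concentrations spanning a 10,000-fold range in 384-well plates. Cells were incubated for 72 h at 37 °C and viability was read by CellTiter-Glo, normalised to DMSO (0% inhibition) and 100 µM benzethonium chloride (100% inhibition). IC50 values come from logistic dose-response fits (Breeze pipeline). Tamoxifen-resistant lines and the 'in 1µM tamoxifen' parental arms were tested in medium with 1 µM 4-OH-tamoxifen.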

ZR-75-1 [2] = test: as above; details: 72 h
Protocol: as §1

MCF-7 Tam1 [3] = test: as above; details: 4-OH-tamoxifen in medium 1 µM; 72 h
Protocol: as §1

ZR-75-1 Tam2 [4] = test: as above; details: 4-OH-tamoxifen in medium 1 µM; 72 h
Protocol: as §1

T-47D [5] = test: as above; details: 72 h
Protocol: as §1

BT-474 [6] = test: as above; details: 72 h
Protocol: as §1

BT-474 Tam2 [7] = test: drug sensitivity score (DSS) (DSS (dimensionless)); higher = more sensitive; extreme values may be limits of the assay; details: 4-OH-tamoxifen in medium 1 µM; 72 h
Protocol: (§2)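 FIMM FO2B library drugs were tested at 5 concentrations (10,000-fold range) for 72 h, with CellTiter-Glo viability normalised to DMSO and benzethonium chloride controls. The Drug Sensitivity Score (DSS) is computed from the fitted logistic dose-response curve (area-based; 0 = inactive). Resistant lines and the 'in 1µM tamoxifen' arms were tested in 1 µM 4-OH-tamoxifen.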

ZR-75-1 Tam1 [8] = test: as above; details: 4-OH-tamoxifen in medium 1 µM; 72 h
Protocol: as §2

ZR-75-1 [9] = test: as above; details: 72 h
Protocol: as §2

MCF-7 Tam1 [10] = test: as above; details: 4-OH-tamoxifen in medium 1 µM; 72 h
Protocol: as §2

BT-474 Tam1 [11] = test: as above; details: 4-OH-tamoxifen in medium 1 µM; 72 h
Protocol: as §2

ZR-75-1 Tam2 [12] = test: as above; details: 4-OH-tamoxifen in medium 1 µM; 72 h
Protocol: as §2

T-47D Tam1 = test: as above; details: 4-OH-tamoxifen in medium 1 µM; 72 h
Protocol: as §2

T-47D Tam2 = test: as above; details: 4-OH-tamoxifen in medium 1 µM; 72 h
Protocol: as §2

MCF-7 [13] = test: as above; details: 72 h
Protocol: as §2

T-47D [14] = test: as above; details: 72 h
Protocol: as §2

BT-474 [15] = test: as above; details: 72 h
Protocol: as §2

BT-474 Tam2 [16] = test: relative IC50 (midpoint of fitted logistic curve, plateau may be below 50% inhibition; CellTiter-Glo viability); higher = less potent; details: 4-OH-tamoxifen in medium 1 µM; 72 h
Protocol: as §1

BT-474 Tam1 [17] = test: as above; details: 4-OH-tamoxifen in medium 1 µM; 72 h
Protocol: as §1

MCF-7 [18] = test: as above; details: 72 h
Protocol: as §1

Compound | relative IC50 (ZR-75-1 Tam1 [1]) [µM] | relative IC50 (ZR-75-1 [2]; 4-OH-tamoxifen in medium 0 µM) [µM] | relative IC50 (ZR-75-1 [2]; 4-OH-tamoxifen in medium 1 µM) [µM] | relative IC50 (MCF-7 Tam1 [3]) [µM] | relative IC50 (ZR-75-1 Tam2 [4]) [µM] | relative IC50 (T-47D [5]; 4-OH-tamoxifen in medium 0 µM) [µM] | relative IC50 (T-47D [5]; 4-OH-tamoxifen in medium 1 µM) [µM] | relative IC50 (BT-474 [6]; 4-OH-tamoxifen in medium 0 µM) [µM] | drug sensitivity score (BT-474 Tam2 [7]) | drug sensitivity score (ZR-75-1 Tam1 [8]) | drug sensitivity score (ZR-75-1 [9]; 4-OH-tamoxifen in medium 0 µM) | drug sensitivity score (ZR-75-1 [9]; 4-OH-tamoxifen in medium 1 µM) | drug sensitivity score (MCF-7 Tam1 [10]) | drug sensitivity score (BT-474 Tam1 [11]) | drug sensitivity score (ZR-75-1 Tam2 [12]) | drug sensitivity score (T-47D Tam1) | drug sensitivity score (T-47D Tam2) | drug sensitivity score (MCF-7 [13]; 4-OH-tamoxifen in medium 0 µM) | drug sensitivity score (MCF-7 [13]; 4-OH-tamoxifen in medium 1 µM) | drug sensitivity score (T-47D [14]; 4-OH-tamoxifen in medium 0 µM) | drug sensitivity score (T-47D [14]; 4-OH-tamoxifen in medium 1 µM) | drug sensitivity score (BT-474 [15]; 4-OH-tamoxifen in medium 0 µM) | drug sensitivity score (BT-474 [15]; 4-OH-tamoxifen in medium 1 µM) | relative IC50 (BT-474 Tam2 [16]) [µM] | relative IC50 (BT-474 Tam1 [17]) [µM] | relative IC50 (MCF-7 [18]; 4-OH-tamoxifen in medium 0 µM) [µM] | relative IC50 (BT-474 [6]; 4-OH-tamoxifen in medium 1 µM) [µM] | relative IC50 (MCF-7 [18]; 4-OH-tamoxifen in medium 1 µM) [µM]
Cn1c(=O)c(F)c(Nc2ccc(I)cc2F)c2c(=O)n(C[C@@H](O)CO)cnc21 [TAK-733] | > 1 | > 1 | > 1 | > 1 | > 1 | > 1 | > 1 | > 1 | 2.4 | 0 | 0 | 0 | 0 | 0 | 0 | 3.14 | 0.474 | 1.63 | 5.38 | 0 | 0 | 0 | 2.56 | – | – | – | – | –
CC1=C(/C=C/C(C)=C/C=C/C(C)=C/C(=O)O)C(C)(C)CCC1 [Tretinoin] | > 10 | > 10 | > 10 | > 10 | > 10 | > 10 | > 10 | > 10 | 0 | 0 | 0 | 0 | 0 | 0 | 0 | 0.561 | 0.122 | 0 | 0.52 | 0 | 0 | 0 | 0 | > 10 | > 10 | > 10 | > 10 | –
NC(=O)Nc1cc(-c2cccc(F)c2)sc1C(=O)N[C@H]1CCCNC1 [AZD7762] | > 1 | – | > 1 | > 1 | > 1 | > 1 | – | > 1 | 0 | 0 | 0 | 0 | 0 | 0 | 0 | 3 | 2.77 | 3.41 | 0 | 0 | 2 | 0 | 0 | > 1 | > 1 | 0.129 | > 1 | > 1
Cc1cc(C(C)Nc2ccccc2)c2nc(N3CCOCC3)cc(=O)n2c1 (configuration not stated) [TGX-221] | 0.193 | 0.0743 | 0.0748 | > 10 | 0.104 | > 10 | – | > 10 | 1.6 | 9.5 | 13.2 | 11 | 0 | 1.23 | 14.3 | 0.102 | 0.389 | 1.97 | 2.11 | 0 | 0.16 | 0 | 0.562 | 4.07 | – | – | – | –
CC(C)(C)NC(=O)[C@H]1CC[C@H]2[C@@H]3CC[C@H]4NC(=O)C=C[C@]4(C)[C@H]3CC[C@]12C [Finasteride] | > 10 | > 10 | > 10 | > 10 | > 10 | > 10 | > 10 | > 10 | 0.793 | 0 | 0 | 0 | 0 | 1.69 | 0 | 0.762 | 0.298 | 0 | 0.553 | 0 | 0 | 0 | 0 | – | – | > 10 | > 10 | –
COc1cc2c(cc1O)CC[C@@H]1[C@@H]2CC[C@]2(C)[C@@H](O)CC[C@@H]12 [2-methoxyestradiol  (Panzem)] | > 10 | 4.13 | > 10 | > 10 | > 10 | – | > 10 | 2.5 | 0.943 | 0 | 1.28 | 0 | 0 | 0.83 | 0 | 0.761 | 1.01 | 3.15 | 0.767 | 0.97 | 0 | 3.19 | 3.93 | – | – | – | 2.75 | –
Cc1ccc(-n2nc(C(C)(C)C)cc2NC(=O)Nc2ccc(OCCN3CCOCC3)c3ccccc23)cc1 [Doramapimod (BIRB 796)] | > 10 | > 10 | > 10 | > 10 | > 10 | – | > 10 | > 10 | 0 | 0 | 0 | 0 | 0 | 1.04 | 0 | 0.342 | 1.06 | 0.173 | 0.239 | 0 | 0 | 0 | 0.211 | > 10 | – | – | – | –
CC(C)Cn1cnc2c(N)nc3ccccc3c21 [Imiquimod] | > 10 | > 10 | > 10 | > 10 | > 10 | – | – | > 10 | 0 | 0 | 0 | 0 | 0 | 0 | 0 | 1.59 | 0.195 | 0 | 0.399 | 0.182 | 0 | 0 | 0.268 | – | > 10 | > 10 | – | –
COc1cc2/c(=N/c3ccc(Br)cc3F)nc[nH]c2cc1OCC1CCN(C)CC1 [Vandetanib  (ZD6474, Zactima)] | > 1 | > 1 | > 1 | > 1 | > 1 | > 1 | > 1 | > 1 | 0.605 | 0 | 0 | 0 | 0 | 0.381 | 0 | 0.009 | 1.6 | 0.65 | 0.193 | 0 | 0 | 0 | 0 | – | – | – | > 1 | –
